Among the data in patent publication US20240150293A1, “SPIROCYCLOHEXANE DERIVATIVES, PHARMACEUTICAL COMPOSITIONS CONTAINING THEM AND THEIR USES AS ANTI-APOPTOTIC INHIBITORS” (LES LABORATOIRES SERVIER, priority 2021, published 2024) are Ki values, retold here.

pKi: −log10 of the molar value.

Sequence of Mcl-1 protein (Q07820 whole entry): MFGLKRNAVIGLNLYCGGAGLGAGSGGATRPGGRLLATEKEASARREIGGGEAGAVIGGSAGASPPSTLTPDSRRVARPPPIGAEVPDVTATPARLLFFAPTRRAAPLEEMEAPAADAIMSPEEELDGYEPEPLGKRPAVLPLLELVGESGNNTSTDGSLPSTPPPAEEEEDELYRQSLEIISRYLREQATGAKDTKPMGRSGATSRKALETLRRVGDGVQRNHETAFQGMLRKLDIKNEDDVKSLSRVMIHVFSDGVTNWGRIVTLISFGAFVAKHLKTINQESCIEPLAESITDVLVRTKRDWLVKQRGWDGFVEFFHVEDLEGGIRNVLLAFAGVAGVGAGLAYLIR

The target of this experiment is Mcl-1 protein (UniProtKB Q07820) (Homo sapiens (Human), UniProt Q07820). As to the kind of experiment: Inhibition of Mcl-1 by the fluorescence polarisation assay (Example A, Method A). Format: binding. Conditions: fluorescence polarization assay. In short, it runs like this:
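Protein (5 nM) and fluorescein-tagged peptide tracer (1 nM) incubated with 11-point compound series for 2 h at room temperature in HEPES/NaCl/Tween 20 buffer, pH 7.4, 5% DMSO. Displacement read as decrease in polarisation; IC50 fitted by 4-parameter logistic, converted to Ki (cKi or eKi).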
(Fluorescence polarisation rises when a labelled molecule tumbles more slowly, as on binding a larger partner.)
As for `O=C(O)[C@]1(Nc2cccc(Cl)c2)CC[C@]2(CC1)C(C1=CCN(Cc3ccccc3)CC1)=Cc1ccccc12` [Example 360, (1r,4r)-2′-(1-benzyl-1,2,3,6-tetrahydropyridin-4-yl)-4-(3-chloroanilino)spiro[cyclohexane-1,1′-indene]-4-carboxylic acid], the pKi – broadly, the Ki on a negative log10 scale, so that one unit is a factor of ten – is 4.76.
For `O=C(O)[C@]1(Nc2cccc(Cl)c2)CC[C@@]2(CC1)c1ccccc1CC2CCCOc1ccc2c(c1)OCO2` (stereo partly shown) [Example 428, (1r,4r)-2′-{3-[(2H-1,3-benzodioxol-5-yl)oxy]propyl}-4-(3-chloroanilino)-2′,3′-dihydrospiro[cyclohexane-1,1′-indene]-4-carboxylic acid], the pKi is 6.41.
With `O=C(O)[C@]1(Nc2cccc(Cl)c2)CC[C@]2(CC1)C(=C1CCCC1)Cc1ccccc12` [Example 93, (1r,4r)-4-(3-chloroanilino)-2′-cyclopentylidene-2′,3′-dihydrospiro[cyclohexane-1,1′-indene]-4-carboxylic acid] the figure was 5.14; with `C=CCOc1ccc2c(c1)[C@]1(CC2)CC[C@](Nc2cccc(Br)c2)(C(=O)O)CC1` [Example 68, (1r,4s)-4-(3-bromoanilino)-6′-[(prop-2-en-1-yl)oxy]-2′,3′-dihydrospiro[cyclohexane-1,1′-indene]-4-carboxylic acid], 6.52; with `COc1cccc(N[C@]2(C(=O)O)CC[C@@]3(CC2)C(Br)=Cc2ccccc23)c1` [Example 86, (1s,4s)-2′-bromo-4-(3-methoxyanilino)spiro[cyclohexane-1,1′-indene]-4-carboxylic acid], 5.39.
As to `CC1=Cc2cc(Cl)ccc2C12CCC(Nc1cccc(Br)c1)(C(=O)O)CC2` (stereo not shown) [Example 124, 4-(3-bromoanilino)-5′-chloro-2′-methylspiro[cyclohexane-1,1′-indene]-4-carboxylic acid], the pKi is 5.89.
As to `C[C@@H](COc1ccccc1)CC1Cc2ccccc2[C@]12CC[C@@](Nc1cccc(Cl)c1)(C(=O)O)CC2` (stereo partly drawn) [Example 567, (1r,4R)-4-(3-chloroanilino)-2′-[(2R)-2-methyl-3-phenoxypropyl]-2′,3′-dihydrospiro[cyclohexane-1,1′-indene]-4-carboxylic acid], the pKi was 6.81.
With `O=C(O)[C@]1(Nc2cccc(Cl)c2)CC[C@]2(CC1)C(c1ccc(Cl)cc1)=Cc1ccccc12` [Example 298, (1s,4s)-4-(3-chloroanilino)-2′-(4-chlorophenyl)spiro[cyclohexane-1,1′-indene]-4-carboxylic acid] the figure was 5.95.
On to `COc1ccc(C2=Cc3ccccc3[C@]23CC[C@@](Nc2cccc(Cl)c2)(C(=O)O)CC3)c(C)c1` [Example 229, (1s,4s)-4-(3-chloroanilino)-2′-(4-methoxy-2-methylphenyl)spiro[cyclohexane-1,1′-indene]-4-carboxylic acid], for which the pKi is 5.87.
As to `CN(CCc1ccncc1)C(=O)C1=Cc2ccccc2[C@]12CC[C@@](Nc1cccc(Cl)c1)(C(=O)O)CC2` [Example 403, (1s,4s)-4-(3-chloroanilino)-2′-{methyl[2-(pyridin-4-yl)ethyl]carbamoyl}spiro[cyclohexane-1,1′-indene]-4-carboxylic acid], the pKi is 5.09.
For the compound `CC1(C)CCC=C1C1=Cc2ccccc2[C@]12CC[C@@](Nc1cccc(Cl)c1)(C(=O)O)CC2` [Example 278, (1s,4s)-4-(3-chloroanilino)-2′-(5,5-dimethylcyclopent-1-en-1-yl)spiro[cyclohexane-1,1′-indene]-4-carboxylic acid], the negative-log Ki (pKi) is 4.93.
For the compound `COCC(COC)CC1=Cc2ccccc2[C@]12CC[C@@](Nc1cccc(Cl)c1)(C(=O)O)CC2` [Example 493, (1r,4r)-4-(3-chloroanilino)-2′-[3-methoxy-2-(methoxymethyl)propyl]spiro[cyclohexane-1,1′-indene]-4-carboxylic acid], the pKi is 5.75.
With `Cc1cnccc1OC[C@H](C)CC1Cc2ccccc2[C@]12CC[C@@](Nc1cccc(Cl)c1)(C(=O)O)CC2` (stereo partly drawn) [Example 576, (1r,4R)-4-(3-chloroanilino)-2′-{(2R)-2-methyl-3-[(3-methylpyridin-4-yl)oxy]propyl}-2′,3′-dihydrospiro[cyclohexane-1,1′-indene]-4-carboxylic acid] the figure was 6.91; with `COc1ccc(C2Cc3ccccc3[C@]23CC[C@@](Nc2cccc(Cl)c2)(C(=O)O)CC3)c(C)c1` (single isomer, unassigned) [Example 254, (1r,4r)-4-(3-chloroanilino)-2′-(4-methoxy-2-methylphenyl)-2′,3′-dihydrospiro[cyclohexane-1,1′-indene]-4-carboxylic acid], 5.66.
Consider `O=C(O)[C@]1(Nc2cccc(Cl)c2)CC[C@]2(CC1)C(c1ccc(Oc3cccnc3)cc1)=Cc1ccccc12` [Example 351, (1s,4s)-4-(3-chloroanilino)-2′-{4-[(pyridin-3-yl)oxy]phenyl}spiro[cyclohexane-1,1′-indene]-4-carboxylic acid], for which the negative logarithm of the Ki (pKi) is 6.26.
For the compound `Cc1ccc(C)c2c1CC(C)C21CCC(Nc2cccc(Br)c2)(C(=O)O)CC1` (stereo not shown) [Example 123, 4-(3-bromoanilino)-2′,4′,7′-trimethyl-2′,3′-dihydrospiro[cyclohexane-1,1′-indene]-4-carboxylic acid], the pKi is 5.19.
Consider `O=C(O)[C@]1(Nc2cccc(Cl)c2)CC[C@@]2(CC1)c1ccccc1C[C@@H]2c1cccc(Oc2ccccc2)c1` [Example 324, (1r,2′R,4R)-4-(3-chloroanilino)-2′-(3-phenoxyphenyl)-2′,3′-dihydrospiro[cyclohexane-1,1′-indene]-4-carboxylic acid], for which the pKi was 5.07.
With `Cc1cc(C)cc(C2=Cc3ccccc3C23CCC(Nc2cccc(Br)c2)(C(=O)O)CC3)c1` (single isomer, unassigned) [Example 238, 4-(3-bromoanilino)-2′-(3,5-dimethylphenyl)spiro[cyclohexane-1,1′-indene]-4-carboxylic acid] the figure was 4.24; with `O=C(O)[C@]1(Nc2cccc(Br)c2)CC[C@@]2(CCCc3ccccc32)CC1` [Example 119, (1r,4s)-4-(3-bromoanilino)-3′,4′-dihydro-2′H-spiro[cyclohexane-1,1′-naphthalene]-4-carboxylic acid], 6.08; with `Cc1csc(C2=Cc3ccccc3[C@]23CC[C@@](Nc2cccc(Cl)c2)(C(=O)O)CC3)c1` [Example 316, (1s,4s)-4-(3-chloroanilino)-2′-(4-methylthiophen-2-yl)spiro[cyclohexane-1,1′-indene]-4-carboxylic acid], 5.73.
For `COCCOc1cc(N[C@]2(C(=O)O)CC[C@@]3(CC2)C(Br)=Cc2ccccc23)ccn1` [Example 81, (1s,4s)-2′-bromo-4-{[2-(2-methoxyethoxy)pyridin-4-yl]amino}spiro[cyclohexane-1,1′-indene]-4-carboxylic acid], the pKi is 4.81.
With `O=C(O)[C@]1(Nc2cccc(Cl)c2)CC[C@@]2(CC1)c1ccccc1[C@@H]1C[C@@H]12` (single isomer, unassigned) [Example 107, (1r,1′aR*,4r,6′aS*)-4-(3-chloroanilino)-1′a,6′a-dihydro-1′H-spiro[cyclohexane-1,6′-cyclopropa[a]indene]-4-carboxylic acid] the figure was 5.73.
